Measurements: patent US11306101B2 (Celgene Corporation, priority 2019, dated 2022)

Biological target: T1, CK1α (Homo sapiens, UniProt P48729+Q96SW2)
T1 construct: expressed in transfected cells
Assay: CK1α ePL degradation assay in MDS-L cells
Type: cell-based
Details: MDS-L cells expressing ePL-tagged CK1α; for DC50: concentration giving 50% CK1α degradation vs DMSO control; for Y: lowest measured CK1α level normalized to DMSO control
How it was run: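 Degradation efficiency is reported as Y value, the minimum CK1α level (percent of DMSO control) across doses. Readout used InCELL Hunter luminescent detection after MDS-L cell exposure at 37° C for stated times, doses 10 μM down to 0.0005 μM in 3-fold steps.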

T1 sequence (P48729 whole entry): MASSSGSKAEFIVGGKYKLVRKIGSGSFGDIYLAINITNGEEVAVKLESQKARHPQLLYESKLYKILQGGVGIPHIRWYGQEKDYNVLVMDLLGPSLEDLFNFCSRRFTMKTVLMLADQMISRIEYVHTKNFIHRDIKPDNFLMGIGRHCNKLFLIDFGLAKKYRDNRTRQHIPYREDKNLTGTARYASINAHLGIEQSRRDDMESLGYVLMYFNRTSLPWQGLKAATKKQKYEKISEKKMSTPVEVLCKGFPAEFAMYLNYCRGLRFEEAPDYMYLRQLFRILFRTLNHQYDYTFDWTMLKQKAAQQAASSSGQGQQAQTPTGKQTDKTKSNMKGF
T1 sequence (Q96SW2 whole entry): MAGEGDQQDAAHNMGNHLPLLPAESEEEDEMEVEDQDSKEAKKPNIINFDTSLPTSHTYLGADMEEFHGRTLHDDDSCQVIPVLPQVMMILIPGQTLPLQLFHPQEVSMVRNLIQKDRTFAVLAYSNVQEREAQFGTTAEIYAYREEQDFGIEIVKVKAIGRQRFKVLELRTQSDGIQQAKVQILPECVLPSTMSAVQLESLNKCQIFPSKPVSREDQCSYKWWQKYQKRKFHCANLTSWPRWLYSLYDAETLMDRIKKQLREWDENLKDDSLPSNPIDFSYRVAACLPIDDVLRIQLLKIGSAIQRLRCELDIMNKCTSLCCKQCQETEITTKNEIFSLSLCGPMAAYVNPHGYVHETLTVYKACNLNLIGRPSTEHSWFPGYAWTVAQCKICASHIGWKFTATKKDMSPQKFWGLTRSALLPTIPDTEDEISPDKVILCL
T1 sequence (Q16531 whole entry partner): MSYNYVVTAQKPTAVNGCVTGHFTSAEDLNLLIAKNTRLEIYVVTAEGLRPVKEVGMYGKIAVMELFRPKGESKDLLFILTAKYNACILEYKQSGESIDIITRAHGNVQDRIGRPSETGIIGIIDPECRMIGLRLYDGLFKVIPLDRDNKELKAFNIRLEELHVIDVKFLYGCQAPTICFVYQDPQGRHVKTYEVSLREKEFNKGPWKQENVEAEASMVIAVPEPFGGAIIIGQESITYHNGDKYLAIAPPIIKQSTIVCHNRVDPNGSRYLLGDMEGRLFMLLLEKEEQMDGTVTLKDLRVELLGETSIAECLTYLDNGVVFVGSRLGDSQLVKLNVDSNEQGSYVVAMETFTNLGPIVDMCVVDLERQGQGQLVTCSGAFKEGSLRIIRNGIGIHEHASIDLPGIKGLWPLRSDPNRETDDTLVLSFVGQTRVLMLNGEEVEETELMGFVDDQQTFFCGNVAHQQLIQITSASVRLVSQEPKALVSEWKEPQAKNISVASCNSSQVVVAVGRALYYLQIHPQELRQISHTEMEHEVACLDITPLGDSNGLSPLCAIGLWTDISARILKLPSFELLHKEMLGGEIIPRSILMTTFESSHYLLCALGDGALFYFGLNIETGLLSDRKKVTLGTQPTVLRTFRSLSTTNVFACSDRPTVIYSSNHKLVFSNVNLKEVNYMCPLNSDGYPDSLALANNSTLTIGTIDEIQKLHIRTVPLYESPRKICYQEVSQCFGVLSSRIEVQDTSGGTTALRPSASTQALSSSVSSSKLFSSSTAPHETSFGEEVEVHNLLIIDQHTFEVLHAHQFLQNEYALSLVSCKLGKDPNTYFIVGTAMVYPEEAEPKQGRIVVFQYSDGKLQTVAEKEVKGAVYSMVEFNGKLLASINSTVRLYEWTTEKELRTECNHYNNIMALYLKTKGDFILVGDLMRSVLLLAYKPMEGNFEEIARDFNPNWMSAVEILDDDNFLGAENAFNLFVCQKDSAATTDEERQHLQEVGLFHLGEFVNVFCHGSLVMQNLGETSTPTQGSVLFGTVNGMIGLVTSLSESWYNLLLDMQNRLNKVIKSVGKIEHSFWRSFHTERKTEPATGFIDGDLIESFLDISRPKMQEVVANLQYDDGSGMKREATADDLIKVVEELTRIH

| DC50 [µM] | Y | SMILES |
| --- | --- | --- |
| < 0.1 | * (a Y value (shown as *) of 0<Y≤20%) | O=C1CCC(N2Cc3cc(C(=O)N[C@H](c4ccccc4OC4CC4)C(F)(F)F)ccc3C2=O)C(=O)N1 (stereo partly drawn) [Example 161, N-((R)-1-(2-cyclopropoxyphenyl)-2,2,2-trifluoroethyl)-2-(2,6-dioxopiperidin-3-yl)-1-oxoisoindoline-5-carboxamide] |
| 0.1 to 0.5 | ** (a Y value (shown as**) of 20%<Y≤35%) | CC1([C@@H](NC(=O)c2ccc3c(c2)CN(C2CCC(=O)NC2=O)C3=O)C(F)(F)F)COC1 (stereo partly drawn) [Example 94, 2-(2,6-dioxopiperidin-3-yl)-1-oxo-N-((R)-2,2,2-trifluoro-1-(3-methyloxetan-3-yl)ethyl)isoindoline-5-carboxamide] |
| < 0.1 | ** (a Y value (shown as**) of 20%<Y≤35%) | C[C@H](NC(=O)c1ccc2c(c1)CN(C1CCC(=O)NC1=O)C2=O)C1CCC1 (stereo partly shown) [Example 9] |
| < 0.1 | ** (a Y value (shown as**) of 20%<Y≤35%) | O=C1CCC(N2Cc3cc(C(=O)N[C@H](CC(F)(F)F)c4cccc(F)c4)ccc3C2=O)C(=O)N1 (stereo partly drawn) [Example 190, 2-(2,6-dioxopiperidin-3-yl)-1-oxo-N-((R)-3,3,3-trifluoro-1-(3-fluorophenyl)propyl)isoindoline-5-carboxamide] |
| < 0.1 | * (a Y value (shown as *) of 0<Y≤20%) | O=C1CCC(N2Cc3cc(C(=O)N[C@H](c4ccc(F)cc4OC(F)(F)F)C(F)(F)F)ccc3C2=O)C(=O)N1 (stereo partly drawn) [Example 86, 2-(2,6-dioxopiperidin-3-yl)-1-oxo-N-((R)-2,2,2-trifluoro-1-(4-fluoro-2-(trifluoromethoxy)phenyl)ethyl)isoindoline-5-carboxamide] |
| < 0.1 | * (a Y value (shown as *) of 0<Y≤20%) | O=C1CCC(N2Cc3cc(C(=O)N[C@H](c4ccc(CN5CCOCC5)cc4)C(F)(F)F)ccc3C2=O)C(=O)N1 (stereo partly drawn) [Example 142, 2-(2,6-dioxopiperidin-3-yl)-1-oxo-N-((R)-2,2,2-trifluoro-1-(4-(morpholinomethyl)phenyl)ethyl)isoindoline-5-carboxamide] |
| 0.1 to 0.5 | ** (a Y value (shown as**) of 20%<Y≤35%) | O=C1CCC(N2Cc3cc(C(=O)N[C@H](c4ccccc4F)C(F)(F)F)c(F)cc3C2=O)C(=O)N1 (stereo partly drawn) [Example 99, 2-(2,6-dioxopiperidin-3-yl)-6-fluoro-1-oxo-N-((R)-2,2,2-trifluoro-1-(2-fluorophenyl)ethyl)isoindoline-5-carboxamide] |
| < 0.1 | * (a Y value (shown as *) of 0<Y≤20%) | O=C1CCC(N2Cc3cc(C(=O)N[C@@H](C(F)(F)F)C45CC(C4)C5)ccc3C2=O)C(=O)N1 (stereo partly drawn) [Example 57, N-((R)-1-(bicyclo[1.1.1]pentan-1-yl)-2,2,2-trifluoroethyl)-2-(2,6-dioxopiperidin-3-yl)-1-oxoisoindoline-5-carboxamide] |
| < 0.1 | * (a Y value (shown as *) of 0<Y≤20%) | CC[C@H](NC(=O)c1ccc2c(c1)CN(C1CCC(=O)NC1=O)C2=O)c1ccccc1 (stereo partly shown) [Example 6] |
| < 0.1 | * (a Y value (shown as *) of 0<Y≤20%) | O=C1CCC(N2Cc3cc(C(=O)N[C@H](c4ccc(CN5CCCC5)cc4)C(F)(F)F)ccc3C2=O)C(=O)N1 (stereo partly drawn) [Example 180, 2-(2,6-dioxopiperidin-3-yl)-1-oxo-N-((R)-2,2,2-trifluoro-1-(4-(pyrrolidin-1-ylmethyl)phenyl)ethyl)isoindoline-5-carboxamide] |
| < 0.1 | * (a Y value (shown as *) of 0<Y≤20%) | O=C1CCC(N2Cc3c(ccc(C(=O)N[C@H](c4ccc(F)cc4F)C(F)(F)F)c3F)C2=O)C(=O)N1 (stereo partly drawn) [Example 105, N-((R)-1-(2,4-difluorophenyl)-2,2,2-trifluoroethyl)-2-(2,6-dioxopiperidin-3-yl)-4-fluoro-1-oxoisoindoline-5-carboxamide] |
